Laboratory results as given in US9889184B2 (priority 2008, dated 2018).

Key:
[1] = system: Fov infection; conditions: transgenic cotton expressing NaD1 vs untransformed parent variety, field trials; cited from earlier work
[2] = system: Fov hyphae; assay: Uptake of NaD1 into hyphae (immunogold EM, bimane fluorescence, immunoblot); type: cell-based, Fusarium oxysporum f. sp. vasinfectum
Description: Fov hyphae were grown as described above prior to the addition of NaD1 (10 μM final concentration) to 1 mL of the culture. Samples (100 μL) were collected after 0, 5, 10, 30, 60, 90 and 120 min. Hyphae were collected by centrifugation (10 min, 10,000×g) and the supernatant was stored at −20° C. for analysis. Hyphae were washed (2×10 min) with KCl (0.6 M) to remove any ionically bound protein before they were resuspended in 50 mM CAPS buffer (pH 10.0) containing 10 mM DTT for 20 min. Hyphae were collected by centrifugation and the supernatant, containing cell wall proteins, was collected for analysis. The pellet (containing cells) was resuspended in water and the cells were lysed using glass beads (Sigma, 60 mg) and vortexing (3×10 min). Cellular debris was removed by centrifugation (16,000×g, 10 min) and the supernatant collected for analysis. All samples were then analyzed by SDS-PAGE and immunoblotting.
Fov hyphae were grown for 18 h in half-strength PDB (5 mL) with vigorous shaking at 25° C. from a starting spore suspension of 5×10^4/mL. Hyphae were then treated with 2 μM NaD1 or an equivalent volume of water for 2 h at RT with gentle agitation, and were washed twice in 0.6 M KCl and three times in PBS before fixation in 4% (w/v) paraformaldehyde in PBS for 1 h at 4° C. Hyphae were again washed three times in PBS before dehydration in a standard ethanol series (15 min each, 50%, 70% and 90% ethanol, 3×15 min 100% ethanol). Hyphae were then infiltrated with LR White resin (ProSciTech) for 1 h at RT, followed by 18 h at 4° C., 1 h at RT and 24 h at 60° C. Fresh LR White resin was used at each step. Ultrathin sections were cut and placed on Formvar coated gold grids.
Grids were blocked with PBS containing 8% (w/v) BSA and 1% (v/v) Triton X-100 for 1 h and labeled with α-NaD1 antibodies (2 μg/mL in blocking buffer) for 1 h. Grids were washed in blocking buffer (3×10 min) and labeled with 15 nm gold particle labeled goat α-rabbit IgG antibodies (ProSciTech diluted 1 in 20 for 1 h. Grids were washed again in blocking solution (3×10 min) followed by water (15 min) before being air-dried. A JEOL JEM2010HC x e80 KV transmission electron microscope was used to examine labeled grids. Pictures were taken on Kodak EM film (ProSciTech) and developed in a dark room before scanning on a Hewlett Packard Scanjet 5P scanner.
Hyphae grown for 18 h as described were treated with NaD1-bimane (2 μM) for between 10 min and 6 h. Hyphae were then visualized by fluorescence microscopy using an MWU filter (excitation wavelength of 330-385 nm).

[3] = system: Fov hyphae; assay: Uptake of FITC-labeled dextrans into NaD1-treated hyphae; type: cell-based, Fusarium oxysporum f. sp. vasinfectum
Description: The uptake of FITC-labeled dextran following NaD1 treatment of fungal hyphae was also studied. Fov hyphae were grown as described above and incubated with NaD1 (final concentration 0.1, 2, 10 or 50 μM) or an equivalent volume of water for 2 h at RT with gentle agitation. Hyphae were washed twice for 10 min with half-strength PDB to remove excess NaD1 before FITC dextrans of either 4 kDa (FD-4, Sigma-Aldrich) or 10 kDa (FD-10, Sigma-Aldrich) were added to a final concentration of 1 μM. Hyphae were incubated for a further 30 min at RT and then washed twice with half strength PDB to remove excess dextrans. Fluorescence microscopy was used to visualize hyphae as described for SYTOX® green. A second assay was performed under the same conditions except the dextrans were added at the same time as NaD1.

[4] = system: Fusarium oxysporum f. sp. vasinfectum (Fov) hyphae; assay: Permeabilisation of Fov hyphae by defensins, SYTOX green (Example 10); type: cell-based; conditions: within 60 mins; followed over 2 h
Description: Fov hyphae were grown in half-strength PDB (10 mL in a 50 mL tube) from a starting concentration of 5×10^4 spores/mL for 18 h at 25° C. with constant shaking. Samples (1 mL) were then removed and NaD1 (final concentration 2 μM), NaD1R&A (final concentration 2 μM) or an equivalent volume of water was added before incubation for 2 h at RT with gentle agitation. SYTOX® green (Invitrogen-Molecular Probes, Eugene, Oreg.) was added to a final concentration of 0.5 μM and the hyphae were allowed to stand for 10 min. Hyphae (20 μL) were then transferred to microscope slides (SuperFrost (Registered) Plus, Menzel-Glaser) and covered with glass coverslips for visualization of SYTOX® green uptake using an Olympus BX51 fluorescence microscope. SYTOX® green fluorescence was detected using an MWIB filter (excitation wavelength 460-490 nm). Images were captured using a SPOT RT 3CCD digital camera (Diagnostic Instruments) and processed using Adobe Photoshop. SYTOX® green uptake was quantitated by measuring fluorescence of hyphae in microtitre trays using a fluorimeter (SpectraMax M2; Molecular Devices) with excitation and emission wavelengths of 488 nm and 538 nm, respectively.
The ability of defensins to permeabilise Fusarium oxysporum f. sp. vasinfectum (Fov) hyphae was assessed using a SYTOX green assay as described in the detailed description (NaD1 and membrane permeabilisation).

NaD1: plant defensin isolated from floral tissue of Nicotiana alata (SEQ ID NO:12) (RECKTESNTFPGICITKPPCRKACISEKFTDGHCSKILRRCLCTKPC; Nicotiana alata (NaD1))
protection from the pathological effects of Fov infection [1]: significantly protected
NaD1 in cytoplasm of treated hyphae, immunogold α-NaD1 labeling ([2]; NaD1 10 μM, 2 h, many, but not all, hyphae): heavily labeled
time after which NaD1 uptake occurred ([2]; SDS-PAGE and immunoblotting of cytoplasmic contents): 20 min
time until which NaD1 in the Fov cytoplasm increased ([2]; immunoblotting, decreased slightly afterwards): 60 min
entry of 10 kDa FITC-dextran (23 Å) into NaD1-treated hyphae ([3]; even at very high concentrations of NaD1): excluded
entry of 4 kDa FITC-dextran (14 Å) into NaD1-treated hyphae ([3]; same NaD1 concentration that led to SYTOX green uptake): entered hyphae
permeabilisation of Fov hyphae (SYTOX green) [4]: efficiently permeabilise
